The values that follow come from patent US20150051246A1 (priority 2013, published 2015).

One data set concerns male Wistar rats. As to the kind of experiment: Object recognition task (ORT), scopolamine induced memory deficit. In kind it is in vivo. How it is done:
Memory acquisition processes are investigated using the object recognition test (ORT).
Twenty four 3-4 month old male Wistar rats (Charles River, Sulzfeld, Germany) were used for the study. All animals were housed individually in standard green line Tecniplast IVC cages on stardust bedding. The animals were housed on a reversed 12/12 h light/dark cycle (lights on from 07:00 pm to 07:00 am) and had free access to food and water. The rats were housed and tested in the same room. A radio, playing softly, provided background noise in the room. All testing was performed between 09:00 am and 06:00 pm.
Drugs were prepared daily, except as indicated otherwise. Roflumilast (Takeda, Konstanz, Germany, MW 403.21) was dissolved in 98% methylcellulose solution (0.5% methylcellulose) and 2% Tween 80. Roflumilast in doses of 0 (vehicle), 0.0001, 0.0003, 0.001, 0.003, 0.01 and 0.03 mg/kg was administered intraperitonally (ip, injection volume 1 ml/kg). […] All compounds were administered 30 min before T1.
The testing order of conditions was determined randomly. The experimenter was blind of testing protocol. A within design was used and all treatment conditions were balanced over rats. The ORT was performed as described elsewhere (Ennaceur and Delaceur, 1988, Behav Brain Res, Vol 31, pp 47-59; Akkerman et al; 2012, Behav Brain Res, Vol 232, pp 335-347). The apparatus consisted of a circular arena, 83 cm in diameter. The back half of the 40 cm high wall was made of grey PVC and the front was made of transparent PVC. Fluorescent red tubes and a light bulb provided a constant illumination of about 20 lux on the floor of the apparatus. The light intensity was equal in the different parts of the apparatus.
Two objects were placed in symmetrical positions at the mid-line between the gray and transparent halves of the arena, about ten centimeters away from wall. Four different sets of objects were available: 1) a standard 1 L brown transparent glass bottle (diameter 10 cm, height 22 cm) filled with water, 2) a metal cube (10.0×5.0×7.5 cm) with two holes (diameter 1.9 cm), 3) a cone consisting of a gray PVC base (maximal diameter 18 cm) with a collar on top made of brass (total height 16 cm), and 4) an aluminum cube with a tapering top (13.0×8.0×8.0 cm). Objects were presented to the animals in a balanced manner to avoid object or place biases. Rats were unable to displace the objects.
A test session comprised two trials, each with durations of 3 min. During the learning trial (T1) the apparatus contains two identical objects (object a1 and a2). Rats were always introduced into the apparatus with their nose towards the transparent wall segment (i.e. facing outwards to the front of the arena). Subsequently, rats were put back in its home cage for a 1 h interval. After the retention interval, rats were put back into the arena for the […] (T2). In T2, the two objects from T1 were replaced by one identical copy (a3) and a different novel object (b). The times spent in exploring each object during T1 and T2 were recorded manually on a personal computer.
Exploration was defined in the following manner: directing the nose to the object at a distance of no more than 2 cm and/or touching the object with the nose. Sitting on the object was not considered as exploratory behavior. In order to avoid the presence of olfactory cues, the objects were thoroughly cleaned with a 70% ethanol solution before each trial.
Prior to compound testing, the animals were handled for 5 min on 2 consecutive days and allowed to explore the ORT arena, also for 5 min. Subsequently, the animals were accustomed to the complete ORT testing procedure without receiving any injection.
The readout parameters of the object recognition task are the times that rats spent on exploring each object during T1 and T2. The exploration time (in seconds) of each object during T1 are presented as “a1” and “a2”.

For data set [1], the system named is rats. The note with it: cited from earlier work.
In data set [2] the test system is rats. Particulars: cited from earlier work. This is another data set of the same source.
Data set [3] is classed as in vivo, human. Particulars: plasma, single dose. An excerpt:
An interim analysis has been performed based on the data of 9 subjects of the Impaired Elderly group and 4 subjects of the Healthy Elderly group. For this purpose, cognitive battery test scores (VLT, SMT, Stroop task and BL-VAS) and concentrations of roflumilast and roflumilast-N-oxide in plasma have been analysed and summarized by dose over each scheduled sampling time using descriptive statistics.

The format of data set [4] is in vivo, human. Particulars: once a day (24 h) repeated dosing. The method, then: In the above-indicated clinical trial roflumilast was administered once in a single oral dose of 100 mcg, 300 mcg or 1000 mcg. Due to the pharmacokinetics of roflumilast and its metabolite roflumilast-N-oxide and the median plasma half-life of these compounds the steady state plasma concentration levels in a once a day (24 h) repeated dosing regimen of roflumilast/roflumilast-N-oxide is about two-fold compared to the plasma concentration levels following a once a day single dosing.

A further data set concerns phosphodiesterase 4. Particulars: in humans after roflumilast; cited from earlier work.
The next data set has as its system male C57BL/6NCrl mice. As to the kind of experiment: Object Location Task (OLT), spatial memory, 24 h retention interval. The data set is classed as in vivo. The note with it: for d2 index, discrimination index for T2: 3 h after T1, 24 h interval. An excerpt:
The objective of this study was to evaluate the cognitive improvement effects of Roflumilast on spatial memory employing Object Location Task (OLT) in male C57BL/6NCrl mice. Roflumilast was compared with data of the already established PDE4 inhibitor Rolipram in the same model.
Twenty-four 7 month-old male C57BL/6NCrl mice (Charles River, L'Arbresle, France) were used (average body weights: 27.6 g). The animals were kept under a 12/12-hour light/dark cycle (lights on from 07.00 pm to 07.00 am) with free access to food and water. All testing was done between 09.00 am and maximally 06.00 pm.
Both rolipram (Sigma-Aldrich St. Louis, USA; MW 275.34) and roflumilast (Biocrea, Radebeul, Germany; MW 403.21) were dissolved in dimethylsulfoxide (DMSO) and kept at 4° C.; this stock solution was used for further dilutions in 0.5% methylcellulose. Each of rolipram and roflumilast is used in form of its free base. All injected solutions consisted of 0.5% methylcellulose with a fixed DMSO percentages (1.2%) (vehicle).
For the Object Location Task (OLT), doses of 0.01 mg/kg, 0.03 mg/kg and 0.1 mg/kg of Rolipram or Roflumilast or vehicle were administered subcutaneously (s.c.). Based on previous findings, PDE4 inhibitor single administration was performed 3 hours after the first trial as this has an optimum effect on object memory performance. The injection volume was 5 μl/g.
The OLT apparatus consisted of a circular arena, 40 cm in diameter. Half of the 40 cm transparent polyvinyl chloride wall was covered from the outside with white paper. Two objects were placed symmetrically about 10 cm away from the wall on the separation line, between the transparent and covered side of the arena. Four different sets of objects were available: (1) a cone made of brass (maximal diameter 6 cm and total height 3.8 cm), (2) a transparent glass bottle (diameter 2.7 cm, height 8.5 cm) filled with sand and water, (3) a massive metal cube (2.5 cm×5 cm×7.5 cm) with two holes (diameter 1.5 cm), and (4) a massive aluminum cube with a tapering top (4.5 cm×4.5 cm×8.5 cm).
A testing session comprised two trials of 4 minutes. Before each trial, mice were placed in an empty Makrolon cage (incubation cage) for the same amount of time as the trial (4 min). During the first trial (T1), two identical objects were placed symmetrically about 10 cm away from the wall on the separation line between the transparent and covered side of the arena. After the first exploration period of 4 min, the mouse was put back in its home cage. Mice then received treatment at 3 hours post T1. Subsequently, after a predetermined delay interval (24 h), the mouse was placed in the apparatus for the second trial of 4 min (T2). Two identical objects as in T1 were used; one object was placed in the previously used position, whereas the other was placed in a novel position. The novel position of the object could either be a fixed distance towards the front or a fixed distance towards the back of the arena for both objects. The times spent exploring each object during T1 and T2 were recorded manually using a personal computer. All objects and locations were used in a balanced manner to exclude possible object and/or location preferences. To avoid olfactory cues, the objects were thoroughly cleaned with 70% ethanol after each trial. The testing order of conditions was determined randomly.
The measurements reflected the time spent by the mice in exploring each object during T1 and T2. The time spent in exploring the two identical samples in T1 were represented by ‘a1’ and ‘a2’, respectively. The time spent in exploring the sample and the new object in T2 were represented by ‘a’ and ‘b’, respectively. From these exploration times the following variables were calculated: e1, e2, and d2 (Table 1). The d2 index is a relative measure of discrimination corrected for exploratory activity. […]

The test system of data set [5] is xylazine/ketamine induced α2-adrenergic receptor-mediated anesthesia. Particulars: in vivo, 0.3 mg/kg. The source says: Since emesis is a typical side-effect of PDE4 inhibitors the emetic potential of roflumilast and rolipram was investigated in parallel using the xylazine/ketamine induced α2-adrenergic receptor-mediated anesthesia test. The results confirmed that the two phosphodiesterase 4 inhibitors have different effects on emesis.

Each structure is given as a SMILES string.

As for `COc1cc2c(cc1OC)C(=O)C(CC1CCN(Cc3ccccc3)CC1)C2.Cl` (racemic) [donepezil, (±)-2,3-dihydro-5,6-dimethoxy2-[[1-(phenylmethyl)-4-piperidinyl]methyl]-1H-inden-1-one], in the data set on male Wistar rats (scopolamine 0.1 mg/kg + donepezil 0.1 mg/kg p.o.), the d2 is 0.04.

On to `O=C(NC1CC1)c1cn(-c2cccc(-c3ccc([C@@H]4C[C@H]4C(=O)O)c(F)c3)c2)c2ncccc2c1=O` [MK-0952], for which the “novel object recognition (in words)” value with rats [1] is “improvement of novel object recognition”. Also, the “Water Maze DMTP test (in words)” value in the data set on rats [2] is “improvement”.

On to `O=C(Nc1c(Cl)c[n+]([O-])cc1Cl)c1ccc(OC(F)F)c(OCC2CC2)c1` [roflumilast-N-oxide, 3-cyclopropylmethoxy-4-difluoromethoxy-N-(3,5-dichloro-1-oxypyrid-4-yl)benzamide], for which, in data set [3], the exposure entry is given as “consistent with those previously reported”. In data set [4], the “steady state plasma concentration levels compared to single dosing” value was “about two-fold”. Also, the “share of overall phosphodiesterase 4 inhibition” value with phosphodiesterase 4 is reported as “more than 90%”.

With `COc1ccc(C2CNC(=O)C2)cc1OC1CCCC1` (stereo not shown) [rolipram], the “d2 index, discrimination index for T2” value with male C57BL/6NCrl mice (0.01 mg/kg s.c.) turned out to be 0.08; with male C57BL/6NCrl mice (0.03 mg/kg s.c.), 0.13; with male C57BL/6NCrl mice (0.1 mg/kg s.c.), 0.07. The “dose effective in improving spatial memory” value in the data set with male C57BL/6NCrl mice (s.c.) worked out at 0.03 mg/kg. The emetic potential entry in data set [5] is reported as “strong emetic potential”.

Turning to `CN1[C@@H]2C[C@@H](OC(=O)[C@H](CO)c3ccccc3)C[C@H]1[C@@H]1O[C@@H]12` [scopolamine], the d2 was −0.04 in the data set with male Wistar rats (scopolamine 0.1 mg/kg + veh + veh, rof + dpz study) and 0.01 in the data set with male Wistar rats (scopolamine 0.1 mg/kg ip + vehicle, dose response study).
